Earlier results on 5 molecules are cited in patent US11304968B2, “Pharmaceutical compositions comprising a hydroxyethylquercetin glucuronide” (JANSSEN PHARMACEUTICA NV, priority 2018, dated 2022).

Assay in series [1]: not given
The source holds these as a separate data set.

The test system of series [2] is cortisol response. Particulars: in vitro.
Series [3] deals with cortisol levels. The conditions noted are these: depressed, stressed rats.
Series [4] deals with anxiety and depressive behaviors in the offspring. Particulars: pregnant rats fed a high fat diet.
For series [5] the following is noted: rat.
For series [6] the following is noted: humans, oral; baicalin 616 mg with baicalein 52.5 mg; wogonoside 117.2 mg with wogonin 32 mg.
The conditions of series [7]: human, in vivo, po.
For series [8] the following is noted: rat, in vivo, po.

On to `O=C(O)[C@H]1O[C@@H](Oc2cc3oc(-c4ccc(O)cc4)cc(=O)c3c(O)c2O)[C@H](O)[C@@H](O)[C@@H]1O` [scutellarin], for which the pKa entry is “about 2.7”. In addition, in [1], the solubility in water result is given as “poorly soluble in water”.
As for `C[C@@H]1O[C@@H](OC[C@H]2O[C@@H](Oc3c(-c4ccc(O)c(O)c4)oc4cc(OCCO)cc(O)c4c3=O)[C@H](O)[C@@H](O)[C@@H]2O)[C@H](O)[C@H](O)[C@H]1O` [MonoHER, 7-monohydroxyethylrutoside], in series [2], the “effect on cortisol response and cortisol resistance” value is “protects the proper cortisol response and decreases cortisol resistance”.
In the case of `C[C@@H]1O[C@@H](OC[C@H]2O[C@@H](Oc3c(-c4ccc(OCCO)c(OCCO)c4)oc4cc(OCCO)cc(O)c4c3=O)[C@H](O)[C@@H](O)[C@@H]2O)[C@H](O)[C@H](O)[C@H]1O` [troxerutin, 7,3′,4′-trihydroxyethylrutoside], in series [3], the “effect on cortisol levels” value is listed as “decreased cortisol levels”. Moreover, the “anxiety and depressive behaviors in the offspring” value in series [4] was “reduced anxiety and depressive behaviors in the offspring”.
As for `O=C(O)[C@H]1O[C@@H](Oc2cc3oc(-c4ccccc4)cc(=O)c3c(O)c2O)[C@H](O)[C@@H](O)[C@@H]1O` [baicalin], in series [5], the site of absorption result is “preferentially absorbs in the rat stomach”. Besides, the solubility in water entry in series [1] is listed as “poorly soluble in water”. For the same molecule, the “urinary COV of metabolites” value in [6] is reported as “about 10%”.
As for “mono-3′-O-hydroxyethyl quercetin-glucuronide [Mono-3′-O-HEQG]”, the “volunteers in whom the metabolite was detectable” value in series [7] was 13 of the 16. For the same molecule, the detectability as metabolite result in series [8] is “not detectable”.
